According to US12275684B2, “Methods for making and using endoxifen” (Atossa Therapeutics, Inc., priority 2017, dated 2025):
Values joined by “and” are separate entries in the source; they are usually repeats but may differ in a detail not shown here. Identical values can stand only once. Like-named read-outs stand apart in the source and are kept apart here.

Assay: Placebo controlled, dose escalation pharmacokinetic study of oral (Z)-Endoxifen capsules (serum endoxifen; incl. accumulation ratios and dose linearity)
Assay type: in vivo, human
Conditions: for AUC(0-inf) / AUC(0-t) / Cmax / Tmax / Vd/F / concentration at 72 h / concentration at 120 h / concentration at 0.5 h / concentration at 1 h / concentration at 2 h / concentration at 3 h / concentration at 4 h / concentration at 5 h / concentration at 8 h / concentration at 10 h / concentration at 12 h / concentration at 24 h: female, human, serum, oral; for concentration at 72 h: Day 4 Hr 72; for concentration at 120 h: Day 6 Hr 120; for concentration at 0.5 h: Day 1 hr 0.5; for concentration at 1 h: Day 1 hr 1; for concentration at 2 h: Day 1 hr 2; for concentration at 3 h: Day 1 hr 3; for concentration at 4 h: Day 1 hr 4; for concentration at 5 h: Day 1 hr 5; for concentration at 8 h: Day 1 hr 8; for concentration at 10 h: Day 1 hr 10; for concentration at 12 h: Day 1 hr 12; for concentration at 24 h: Day 1 hr 24
Source text: An objective of the study was to assess the safety and tolerability of oral (Z)-Endoxifen when administered […] orally as a capsule to healthy female volunteers. A secondary objective was to assess the pharmacokinetics of multiple doses of oral (Z)-Endoxifen in the subjects.
Generally, healthy female volunteers aged ≥18 years and ≤65 years were enrolled. 24 participants were enrolled in 3 cohorts and will be administered study drug orally. Three dose levels of orally administered (Z)-Endoxifen were investigated in 3 cohorts. In each cohort participants were randomized to receive an oral (Z)-Endoxifen or placebo in a blinded fashion. Enteric-resistant capsules used in the study were designed as delayed release capsules to resist rupture for at least 30 minutes, but typically, for about 2 hours, under gastric conditions and then open fully in intestinal fluid (DRCaps; Capsugel, a Lonza Company, USA). Enteric-resistant (Swedish Orange size Zero (0); Capsugel, USA) DRCaps capsules manually filled with 1, 2 or 4 mg of (Z)-endoxifen neat in compliance with GMP requirements were used. Placebo capsules contained microcrystalline cellulose an inert common capsule and tablet excipient.
Each cohort enrolled 8 participants, with 6 participants receiving (Z)-Endoxifen 1 mg capsules orally at 1 mg (Cohort 1), 2 mg (Cohort 2) or 4 mg (Cohort 3) doses and 2 participants receiving matching placebo capsules. In Cohort 1 (Dose Level=1 mg) two participants (sentinels) were dosed 24 hours prior to the remaining participants. One sentinel was dosed with (Z)-Endoxifen and the other with placebo. The remaining six participants in Cohort 1 were dosed as no safety concerns were identified in the sentinel participants. The non-sentinel participants in Cohort 1 were admitted to the clinical research facility at least one day later than the sentinels. There were no sentinels in Cohorts 2 and 3.
Participant engagement in this study was for a period of 56 days. These included a 28 day screening period, and a 7 day post treatment period for Pharmacokinetic (PK) sampling. There were two confinement periods, one at the beginning and one at the end of the dosing periods. Participants were confined to the clinical facility on Days-1 through to Day 2 and Days 21 and 22. If participants were to experience any clinically significant adverse events during the study, they would have been required to remain in the clinical facility for further observation at the discretion of the Principal Investigator (PI).
Healthy female volunteers were screened within 28 days prior to commencement of dosing. Participants were admitted to the clinical facility on Day-1 for up to 3 days. The first dose of (Z)-Endoxifen or placebo capsules was administered on Day 1. Following completion of all safety assessments and sampling for PK analyses, participants were discharged from the clinical facility on Day 2. The first dose on Day 1 was followed by a 6-day treatment free period (Days 2-7). Each participant returned to the clinical facility for PK blood draws and safety assessments during the treatment free period on study Days 4 and 6. On Day 8 participants commenced daily administration of (Z)-Endoxifen capsules or placebo capsules for 14 consecutive days (Days 8-21). Participants were supplied with study drug capsules and asked to self administer daily. Participants visited the clinical facility on Days 11, 14 and 17, prior to dose administration, for PK blood draws and safety assessments. On the morning of Day 21 each participant returned to the clinical facility prior to dose administration and were confined to the facility until Day 22 to allow for the collection of PK blood draws and safety assessments. The Day 21 dose was the last administration of study drug. Participants were discharged from the clinical facility on Day 22 and returned for PK blood draws and safety assessments on study Days 24, 26, and 28. […]

[1] = 1 mg, read-out: Serum concentration, GeoMean
[2] = 1 mg, read-out: Serum concentration, Max
[3] = 1 mg, read-out: Serum concentration, Mean
[4] = 1 mg, read-out: Serum concentration, Median
[5] = 1 mg, read-out: Serum concentration, Min

- Time to maximum serum endoxifen levels (FIG. 3 and FIG. 4): about 10 hours
- Mean Ratio AUC24 hr(Day 21)/AUC0-inf(Day 1) (dose 1 mg (n = 5)): 0.81 (SD 0.20)
- Mean Ratio AUC24 hr(Day 21)/AUC24 hr(Day 1) (dose 1 mg (n = 5)): 3.09 (SD 1.49)
- Mean Ratio Cmax(Day 21)/Cmax(Day 1) (dose 1 mg (n = 5)): 2.74 (SD 1.29)
- Mean Ratio AUC24 hr(Day 21)/AUC0-inf(Day 1) (dose 2 mg (n = 6)): 0.85 (SD 0.20)
- Mean Ratio AUC24 hr(Day 21)/AUC24 hr(Day 1) (dose 2 mg (n = 6)): 3.04 (SD 0.79)
- Mean Ratio Cmax(Day 21)/Cmax(Day 1) (dose 2 mg (n = 6)): 2.92 (SD 0.88)
- Mean Ratio AUC24 hr(Day 21)/AUC0-inf(Day 1) (dose 4 mg (n = 6)): 1.08 (SD 0.38)
- Mean Ratio AUC24 hr(Day 21)/AUC24 hr(Day 1) (dose 4 mg (n = 6)): 3.47 (SD 1.08)
- Mean Ratio Cmax(Day 21)/Cmax(Day 1) (dose 4 mg (n = 6)): 3.56 (SD 1.01)
- AUC(0-inf) (1 mg, Day 1, 1 mg, N = 5, read-out: AUC0-inf, GeoMean): 559 ng·h/mL
- AUC(0-inf) (1 mg, Day 1, 1 mg, N = 5, read-out: AUC0-inf, Mean): 567 ng·h/mL
- AUC(0-inf) (1 mg, Day 1, 1 mg, N = 5, read-out: AUC0-inf, Median): 534 ng·h/mL
- AUC(0-t) (1 mg, Day 1, 1 mg, N = 5, read-out: AUC24hr, GeoMean): 155 ng·h/mL
- AUC(0-t) (1 mg, Day 1, 1 mg, N = 5, read-out: AUC24hr, Mean): 158 ng·h/mL
- AUC(0-t) (1 mg, Day 1, 1 mg, N = 5, read-out: AUC24hr, Median): 171 ng·h/mL
- AUC(0-t) (1 mg, Day 1, 1 mg, N = 5, read-out: AUCTlast, GeoMean): 466 ng·h/mL
- AUC(0-t) (1 mg, Day 1, 1 mg, N = 5, read-out: AUCTlast, Mean): 471 ng·h/mL
- AUC(0-t) (1 mg, Day 1, 1 mg, N = 5, read-out: AUCTlast, Median): 472 ng·h/mL
- Cmax (1 mg, Day 1, 1 mg, N = 5, read-out: Cmax, GeoMean): 9.5 ng/mL
- Cmax (1 mg, Day 1, 1 mg, N = 5, read-out: Cmax, Mean): 9.6 ng/mL
- Cmax (1 mg, Day 1, 1 mg, N = 5, read-out: Cmax, Median): 10 ng/mL
- Tmax (1 mg, Day 1, 1 mg, N = 5, read-out: Tmax, GeoMean): 5.11 h
- Tmax (1 mg, Day 1, 1 mg, N = 5, read-out: Tmax, Mean): 5.62 h
- Tmax (1 mg, Day 1, 1 mg, N = 5, read-out: Tmax, Median): 6 h
- Vd/F (1 mg, Day 1, 1 mg, N = 5, read-out: Vz/F, GeoMean): 118 L
- Vd/F (1 mg, Day 1, 1 mg, N = 5, read-out: Vz/F, Mean): 120 L
- Vd/F (1 mg, Day 1, 1 mg, N = 5, read-out: Vz/F, Median): 108 L
- AUC(0-t) (1 mg, Day 21, 1 mg, N = 5, read-out: AUC24hr, GeoMean): 431 ng·h/mL
- AUC(0-t) (1 mg, Day 21, 1 mg, N = 5, read-out: AUC24hr, Mean): 458 ng·h/mL
- AUC(0-t) (1 mg, Day 21, 1 mg, N = 5, read-out: AUC24hr, Median): 527 ng·h/mL
- Cmax (1 mg, Day 21, 1 mg, N = 5, read-out: Cmax, GeoMean): 23.3 ng/mL
- Cmax (1 mg, Day 21, 1 mg, N = 5, read-out: Cmax, Mean): 24.6 ng/mL
- Cmax (1 mg, Day 21, 1 mg, N = 5, read-out: Cmax, Median): 29 ng/mL
- Tmax (1 mg, Day 21, 1 mg, N = 5, read-out: Tmax, GeoMean): 6.64 h
- Tmax (1 mg, Day 21, 1 mg, N = 5, read-out: Tmax, Mean): 6.88 h
- Tmax (1 mg, Day 21, 1 mg, N = 5, read-out: Tmax, Median): 8 h
- Vd/F (1 mg, Day 21, 1 mg, N = 5, read-out: Vz/F, GeoMean): 173 L
- Vd/F (1 mg, Day 21, 1 mg, N = 5, read-out: Vz/F, Mean): 181 L
- Vd/F (1 mg, Day 21, 1 mg, N = 5, read-out: Vz/F, Median): 170 L
- concentration at 72 h [1]: 7.84 nM
- concentration at 72 h [2]: 10.7 nM
- concentration at 72 h [3]: 8.03 nM
- concentration at 72 h [4]: 8.03 nM
- concentration at 72 h [5]: 5.35 nM
- concentration at 120 h [1]: 3.53 nM
- concentration at 120 h [2]: 5.35 nM
- concentration at 120 h [3]: 3.75 nM
- concentration at 120 h [4]: 2.68 nM
- concentration at 120 h [5]: 2.68 nM
- concentration at 0.5 h [1]: 3.18 nM
- concentration at 0.5 h [2]: 5.35 nM
- concentration at 0.5 h [3]: 2.68 nM
- concentration at 0.5 h [4]: 2.68 nM
- concentration at 0.5 h [5]: 0 nM
- concentration at 1 h [1]: 3.33 nM
- concentration at 1 h [2]: 8.03 nM
- concentration at 1 h [3]: 3.75 nM
- concentration at 1 h [4]: 2.68 nM
- concentration at 1 h [5]: 2.68 nM
- concentration at 2 h [1]: 17 nM
- concentration at 2 h [2]: 18.7 nM
- concentration at 2 h [3]: 17.1 nM
- concentration at 2 h [4]: 18.7 nM
- concentration at 2 h [5]: 13.4 nM
- concentration at 3 h [1]: 17.1 nM
- concentration at 3 h [2]: 18.7 nM
- concentration at 3 h [3]: 17.1 nM
- concentration at 3 h [4]: 16.1 nM
- concentration at 3 h [5]: 16.1 nM
- concentration at 4 h [1]: 20.1 nM
- concentration at 4 h [2]: 26.8 nM
- concentration at 4 h [3]: 20.3 nM
- concentration at 4 h [4]: 18.7 nM
- concentration at 4 h [5]: 18.7 nM
- concentration at 5 h [1]: 23.2 nM
- concentration at 5 h [2]: 26.8 nM
- concentration at 5 h [3]: 23.6 nM
- concentration at 5 h [4]: 24.1 nM
- concentration at 5 h [5]: 16.1 nM
- concentration at 8 h [1]: 21.1 nM
- concentration at 8 h [2]: 32.1 nM
- concentration at 8 h [3]: 22 nM
- concentration at 8 h [4]: 21.4 nM
- concentration at 8 h [5]: 13.4 nM
- concentration at 10 h [1]: 21.6 nM
- concentration at 10 h [2]: 32.1 nM
- concentration at 10 h [3]: 22.5 nM
- concentration at 10 h [4]: 21.4 nM
- concentration at 10 h [5]: 13.4 nM
- concentration at 12 h [1]: 17.1 nM
- concentration at 12 h [2]: 21.4 nM
- concentration at 12 h [3]: 18.2 nM
- concentration at 12 h [4]: 21.4 nM
- concentration at 12 h [5]: 8.03 nM
- concentration at 24 h [1]: 14.7 nM
- concentration at 24 h [2]: 18.7 nM
- concentration at 24 h [3]: 15 nM
- concentration at 24 h [4]: 16.1 nM
- concentration at 24 h [5]: 10.7 nM
- AUC(0-inf) (2 mg, Day 1, 2 mg, N 6, read-out: AUC0-inf, GeoMean): 1080 ng·h/mL
SMILES: CC/C(=C(\c1ccc(O)cc1)c1ccc(OCCNC)cc1)c1ccccc1 [(Z)-Endoxifen, (Z)-4-(1-(4-(2-(methylamino)ethoxy)phenyl)-2-phenylbut-1-enyl) phenol]
- AUC(0-inf), individual subjects (Dose: 2 mg oral, Day 1): 1188 ng·h/mL and 755 ng·h/mL and 954 ng·h/mL and 1242 ng·h/mL and 1489 ng·h/mL
- AUC(0-inf), individual subjects (Dose: 4 mg oral, Day 1): 1098 ng·h/mL and 1642 ng·h/mL and 736 ng·h/mL and 1883 ng·h/mL and 2116 ng·h/mL and 4624 ng·h/mL
- dose response of Cmax and AUC24hr (across the three dose levels, once daily oral): dose-proportionality (linear dose response)
